{
  "source": "patent US6518424B1",
  "about": "“Substituted pyrimidine compositions and methods of use” (Elan Pharmaceuticals, Inc., priority 1998, dated 2003)",
  "key": {"[1]": {"biological_target": "T1, cPLA2 (Homo sapiens, UniProt P47712)", "T1 construct": "using cPLA2 enzyme from the cytosolic extraction of U937 cells; endogenous in cells; host or cells: human U937 cells, cytosolic extract (N2 cavitation, 100,000 g supernatant)", "T1 sequence (P47712 1-749)": "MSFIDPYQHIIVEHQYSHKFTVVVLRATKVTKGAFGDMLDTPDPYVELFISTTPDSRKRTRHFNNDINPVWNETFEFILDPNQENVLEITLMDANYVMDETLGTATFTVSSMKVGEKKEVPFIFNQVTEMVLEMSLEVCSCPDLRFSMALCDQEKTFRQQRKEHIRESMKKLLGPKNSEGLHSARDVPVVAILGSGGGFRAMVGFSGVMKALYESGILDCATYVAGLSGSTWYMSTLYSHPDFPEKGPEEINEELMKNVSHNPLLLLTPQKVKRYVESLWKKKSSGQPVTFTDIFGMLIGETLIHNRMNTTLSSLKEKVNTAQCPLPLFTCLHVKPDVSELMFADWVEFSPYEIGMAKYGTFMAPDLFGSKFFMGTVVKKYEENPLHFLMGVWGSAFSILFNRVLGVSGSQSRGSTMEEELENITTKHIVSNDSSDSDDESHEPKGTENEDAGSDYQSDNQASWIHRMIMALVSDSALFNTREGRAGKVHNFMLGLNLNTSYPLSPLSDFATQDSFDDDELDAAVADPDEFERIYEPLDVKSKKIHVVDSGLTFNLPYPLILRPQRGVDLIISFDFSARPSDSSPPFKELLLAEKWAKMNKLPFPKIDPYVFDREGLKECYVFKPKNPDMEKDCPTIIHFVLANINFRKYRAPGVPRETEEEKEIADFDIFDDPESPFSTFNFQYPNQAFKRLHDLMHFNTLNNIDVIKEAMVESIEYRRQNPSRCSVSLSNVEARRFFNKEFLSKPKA", "experiment": "cPLA2 enzyme assay using U937 cytosolic extract as enzyme source (release of [14C]-AA from phosphatidylcholine)", "type": "biochemical", "details": "asterisk on compound number in Table I", "protocol": "The PLA2 inhibitory properties of the compounds of the present invention were evaluated using the following assays. Inhibition of release of [^14C]-AA from phosphatidylcholine was measured according to standard methods. Human U937 cells were cultured in RPMI 1640 medium supplemented with 10% fetal bovine serum, penicillin, L-glutamine, and HEPES buffer. Cells were harvested and washed 3 times with extraction buffer (140 mM NaCl—5 mM KCl—2 mM EDTA—25 mM Tris pH 7.4) and resuspended at 1×10^8 cells/mL containing 100 μM leupeptin—50 μM pepstatin—1 mM PMSF. Cells were placed in a N2 cavitation bomb and put under pressure at 600 psi or maximum pressure for 20 minutes at 4° C. Cells were then released. The suspension was collected and centrifuged at 100,000 g for 60 minutes at 4° C. The resulting supernatant was collected and filtered through a 0.22 μm filter. Extract was then diluted to 50% glycerol and stored at −20° C.\nFor the preparation of substrate, 20 nmol of phosphatidylcholine-α-1-palmitoyl-2-arachidonyl-1-[^14C] and 10 nmol 1,2-dioleyl-glycerol were mixed together and dried under a N2 stream. A solution of 1 mL of 150 mM NaCl—50 mM HEPES pH 7.5 was added to the mixture. To reconstitute liposomes, the mixture was sonicated using a Branson 450 sonifier for 2 minutes at 50% duty cycle output level 3 on ice. After sonification, 40 μL of a 100 mg/mL BSA solution was added per mL.\nThe compounds were first dissolved in DMSO at 2 mM and serially diluted in DMSO by a factor of five for a total of 5 concentrations. These dilutions were further dissolved 60 fold in reaction buffer (150 mM NaCl—50 mM HEPES pH 7.5—1 mM CaCl2—1 mM 2-ME) containing approximately 5% of the U937 cytosolic extract to make up the preincubation mixture which was then incubated for 20 minutes at 37° C. Vehicle control using only DMSO with no compound was also made. To 30 μL of this Extract/compound mixture was added 10 μL of substrate. The 40 μL reaction mixture was incubated for 15 minutes at 37° C., and the reaction was stopped by adding 400 μL Dole's reagent [2-propanol/heptane/0.5 M H2SO4 (40:10:1) 10 μg/mL stearic acid]. This was followed by the addition of 240 μL heptane and 200 μL water. 280 μL of the top heptane layer was transferred to a tube containing […] silica gel with 200 μL heptane and mixed vigorously. Silica gel was then centrifuged at 1000 g for 1 minute. 400 μL of liquid was transferred to scintillation vial along with 4 mL of Beckman Ready Safe scintillation cocktail and mixed. Radioactivity was determined in a Beckman scintillation counter.\nThe compounds of the present invention were assayed for cPLA2 activity using cPLA2 enzyme from the cytosolic extraction of U937 cells (all procedures carried out on ice). […]"}},
  "data": [
    {"smiles": "CCCc1ccc(C(c2ccccc2)c2cc(O)nc(-c3ccccc3)n2)cc1", "note": "(centres unmarked) [Compound 18, 6-((4-n-Propyl)phenyl,phenyl)methyl-2-phenyl-pyrimidine-4-ol]", "values": [
      {"measurement": "melting point", "result": "149 to 154", "unit": "°C"},
      {"measurement": "IC50", "setting": "[1]", "result": "< 100", "unit": "nM"}
    ]},
    {"smiles": "CCCc1ccc(C(c2ccccc2)c2cc(O)nc(-c3ccccc3)n2)cc1", "note": "(centres unmarked) [Compound 19, 6-((4-Propyl)phenyl,phenyl)methyl-2-phenyl-pyrimidine-4-ol]", "values": [
      {"measurement": "IC50", "setting": "[1]", "result": "< 100", "unit": "nM"}
    ]},
    {"smiles": "CC(C)Oc1ccc(C(c2ccccc2)c2cc(O)nc(-c3ccccc3)n2)cc1", "note": "(centres unmarked) [Compound 21, 6-((4-Isopropoxy)phenyl,phenyl)methyl-2-phenyl-pyrimidine-4-ol]", "values": [
      {"measurement": "IC50", "setting": "[1]", "result": "< 100", "unit": "nM"}
    ]},
    {"smiles": "CC(C)Oc1ccc(C(c2ccccc2)c2cc(O)nc(-c3ccccc3)n2)cc1", "note": "(centres unmarked) [Compound 22, 6-((4-Isopropoxy)phenyl,phenyl)methyl-2-phenyl-pyrimidine-4-ol]", "values": [
      {"measurement": "IC50", "setting": "[1]", "result": "< 100", "unit": "nM"}
    ]}
  ]
}
